pIC50: −log10 of the molar value.
Target: Signal transducer and activator of transcription 3 (Homo sapiens, UniProt P40763)
Test: Inhibition of STAT3 in human HeLa cells after 24 hrs by luciferase reporter gene assay

Sequence of Signal transducer and activator of transcription 3 (P40763 whole entry): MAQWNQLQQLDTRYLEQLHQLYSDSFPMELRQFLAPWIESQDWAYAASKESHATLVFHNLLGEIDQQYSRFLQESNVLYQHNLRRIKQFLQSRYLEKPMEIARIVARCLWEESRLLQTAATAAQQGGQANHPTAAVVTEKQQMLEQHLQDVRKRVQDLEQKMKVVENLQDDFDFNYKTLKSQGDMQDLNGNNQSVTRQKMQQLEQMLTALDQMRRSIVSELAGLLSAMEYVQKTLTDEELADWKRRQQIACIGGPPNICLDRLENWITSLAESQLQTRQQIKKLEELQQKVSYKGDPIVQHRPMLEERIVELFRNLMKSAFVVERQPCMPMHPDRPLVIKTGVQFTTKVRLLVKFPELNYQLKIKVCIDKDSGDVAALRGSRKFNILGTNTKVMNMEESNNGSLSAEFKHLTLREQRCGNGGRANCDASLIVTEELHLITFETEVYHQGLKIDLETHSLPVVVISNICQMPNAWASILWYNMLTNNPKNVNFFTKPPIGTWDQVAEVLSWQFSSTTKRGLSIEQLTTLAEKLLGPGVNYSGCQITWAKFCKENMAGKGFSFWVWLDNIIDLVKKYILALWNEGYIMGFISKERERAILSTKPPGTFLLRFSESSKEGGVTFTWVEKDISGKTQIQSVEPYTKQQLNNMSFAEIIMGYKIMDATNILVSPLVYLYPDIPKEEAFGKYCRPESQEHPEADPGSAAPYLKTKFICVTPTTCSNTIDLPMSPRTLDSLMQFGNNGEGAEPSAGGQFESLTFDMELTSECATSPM

O=C(Nc1ccc([N+](=O)[O-])cc1Cl)c1cc(Cl)ccc1O [5-chloro-N-(2-chloro-4-nitrophenyl)-2-hydroxybenzamide]
pIC50: 6.60
